Data on 3 molecules can be found in patent US20200239530A1, “COMPOUNDS AND METHODS OF MODULATING PROTEIN DEGRADATION” (Vividion Therapeutics, Inc., priority 2017, published 2020).

The target of experiment [1] is T1, AREL1 Apoptosis-resistant E3 ubiquitin protein ligase 1 (Homo sapiens, UniProt O15033).
T1 construct: endogenous in cells
T1 sequence (O15033 1-823): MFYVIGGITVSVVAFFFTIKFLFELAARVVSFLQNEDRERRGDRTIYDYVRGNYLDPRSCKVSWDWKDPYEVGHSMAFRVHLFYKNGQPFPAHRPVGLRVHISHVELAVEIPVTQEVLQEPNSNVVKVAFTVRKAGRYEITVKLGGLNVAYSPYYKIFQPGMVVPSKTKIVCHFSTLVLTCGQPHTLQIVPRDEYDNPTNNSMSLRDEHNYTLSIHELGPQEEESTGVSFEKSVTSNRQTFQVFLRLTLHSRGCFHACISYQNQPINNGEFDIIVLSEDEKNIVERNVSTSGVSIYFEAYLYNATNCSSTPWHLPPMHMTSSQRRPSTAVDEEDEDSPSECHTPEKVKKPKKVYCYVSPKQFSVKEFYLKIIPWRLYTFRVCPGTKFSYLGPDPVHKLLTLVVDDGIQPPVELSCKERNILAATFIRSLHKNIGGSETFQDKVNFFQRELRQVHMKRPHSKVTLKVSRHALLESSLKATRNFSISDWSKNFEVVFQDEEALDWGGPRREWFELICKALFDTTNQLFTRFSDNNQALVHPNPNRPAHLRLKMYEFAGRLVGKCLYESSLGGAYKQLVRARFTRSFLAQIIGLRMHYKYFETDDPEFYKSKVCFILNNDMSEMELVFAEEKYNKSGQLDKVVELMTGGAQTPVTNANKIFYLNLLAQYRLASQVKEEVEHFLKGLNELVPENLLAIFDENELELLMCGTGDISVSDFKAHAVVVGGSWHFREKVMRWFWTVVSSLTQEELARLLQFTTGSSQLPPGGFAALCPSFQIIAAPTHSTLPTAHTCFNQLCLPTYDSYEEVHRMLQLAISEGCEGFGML
Nature of the experiment: Cysteine liganding, probe competition. Format: binding. How it is done:
(§1) Cells were resuspended in cold PBS on ice and sonicated with a probe sonicator to achieve lysis. 200 μL of lysate containing 5 mg/ml proteome was treated with 2 μL of 100× compound stock in a 2-mL deep-well plate. The treated lysate was subsequently incubate at 25° C. for 1 hr with shaking at 600 rpm. The treated lysate was further incubated with 2 μL of 10 mM desthiobiotin iodoacetamide probe at 25° C. for 1 hr with shaking at 600 rpm. Next, the lysate was further treat with 20 μL of solution of PBS containing 11 mM MgSO4 and 2.5% Turbonuclease stock and incubated at 25° C. for 20 minutes with shaking at 600 rpm. 1.7 mL ice-cold acetone was added to each well and incubated at −20° C. for 2 hr, followed by max speed (4200 rpm) spin for 45 min. Acetone was then decanted and the plates were blotted to remove acetone. The plates were then dried in open air for 20 minutes. After drying, the plates were then covered with foil seal and stored at −80° C. overnight.
(§2) The next day, samples were re-suspended in 90 μL of solution of 9M urea, 50 mM ammonium bicarbonate and 10 mM DTT by incubating at 65C for 20 min with shaking at 1500 rpm. Next, samples were cooled to 37° C. and then 10 μL of 500 mM iodoacetamide solution (92.48 mg/ml) was added. The samples were then incubated at 37° C. for 30 min with shaking at 600 rpm.
(§3) ZEBA desalting plates were equilibrated 4 times using 250 μL of 2M urea, 50 mM ammonium bicarbonate solution followed by centrifugation at 1500 rpm for 2 minutes. After equilibration was complete, samples were applied to ZEBA desalting plate and spin at 1500 rpm for 2 min on top of 1 mL 96-well deep-well collection plate to buffer exchange samples. 4 μL of solution containing 25 mM CaCl2 and 0.25 mg/mL trypsin was added to the plate and the plate was then incubated at 37° C. for 2 hrs with shaking at 600 rpm. 300 μL of solution containing 5% high-capacity streptavidin agarose slurry in 25 mM Tris-HCl pH 7.5, 150 mM NaCl, and 0.1% NP-40 then added. The plate was incubated at 25° C. for 2 hrs with shaking at 600 rpm. Samples were transferred to 25 μm filter plate and spin at 1000 rpm for 2 min. Samples were then washed 3 times with 0.75 mL of wash buffer (25 mM Tris-HCl pH 7.5, 150 mM NaCl, and 0.1% NP-40) followed by washing 3 times with 0.75 mL PBS, and then 4 times with 0.75 mL water. After the washing step, samples were eluted into polypropylene 96-well plate by addition of 250 µL of 50% MeCN/water, 0.1% formic acid and allowed to gravity drip for 10 min, followed by centrifugation at 1000 rpm for 2 min. Speedvac was used to dry the plates at about 45° C. for […]. Then the plates were covered with foil seal and stored at −20° C.
(§4) Samples were resuspended by addition of 20 μl of 12.5% ACN, 0.1% formic acid solution, covered with foil seal, and incubated at 42° C. for 10 minutes with shaking at 600 rpm. Then add 30 μL of 0.1% formic acid solution was added and the plate was covered and incubated at 42° C. for 10 minutes with shaking at 600 rpm. Seal plate was then sealed with a 96-well silicon mat for analysis.

In experiment [2] the target is T2, PCGF2 Polycomb group RING finger protein 2 (Homo sapiens, UniProt P35227).
T2 construct: Cells were resuspended in cold PBS on ice and sonicated with a probe sonicator to achieve lysis; endogenous in cells
T2 sequence (P35227 1-344): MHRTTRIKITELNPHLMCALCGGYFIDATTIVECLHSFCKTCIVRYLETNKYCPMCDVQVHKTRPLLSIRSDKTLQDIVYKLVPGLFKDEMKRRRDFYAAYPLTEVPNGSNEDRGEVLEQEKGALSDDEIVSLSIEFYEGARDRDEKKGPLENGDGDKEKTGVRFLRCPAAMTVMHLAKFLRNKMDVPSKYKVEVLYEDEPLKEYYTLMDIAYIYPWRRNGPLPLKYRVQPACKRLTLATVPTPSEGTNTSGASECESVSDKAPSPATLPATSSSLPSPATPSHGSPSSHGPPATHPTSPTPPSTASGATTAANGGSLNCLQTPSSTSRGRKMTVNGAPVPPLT
Nature of the experiment: Cysteine liganding, probe competition. Type of experiment: binding. The method, then:
as §1, §2, §3, §4

Structures are written as SMILES. Read-outs that look alike come from different tables or passages of the source.

For `COc1ccc2c(c1)CCCN2C(=O)CCl` [KB02], the inhibition at 100 µM in experiment [1] (100 uM, UniProt O15033, read-out: KB02_100 uM_percent_inhibition) amounted to 77%. Besides, the inhibition at 500 µM in experiment [1] (500 uM, UniProt O15033, read-out: KB02_500 uM_percent_inhibition) was 96%. The Liganded entry is “YES” in experiment [1] (AREL1 Res# 382, uniprot O15033) and “YES” in experiment [2] (PCGF2 Res# 233, uniprot P35227).

Regarding `C=CC(=O)N(c1ccccc1)c1ccc(Br)cc1` [KB05], the inhibition at 100 µM in experiment [1] (100 uM, UniProt O15033, read-out: KB05_100 uM_percent_inhibition) was 69%; in experiment [2] (UniProt P35227, 100 uM, read-out: KB05_100 uM_percent_inhibition) it was 28%. Further, the inhibition at 500 µM in experiment [1] (500 uM, UniProt O15033, read-out: KB05_500 uM_percent_inhibition) worked out at 92%. Moreover, the “KB05_100 uM_percent_inhibition” value in experiment [2] (UniProt P35227, 100 uM) amounted to 29%.

In the case of `O=C(CCl)Nc1cc(C(F)(F)F)cc(C(F)(F)F)c1` [KBO3], the “KB03_100 uM_percent_inhibition” value in experiment [1] (100 uM, UniProt O15033) is given as 57%; in experiment [2] (UniProt P35227, 100 uM), 37%. Further, the “KB03_500 uM_percent_inhibition” value in experiment [1] (500 uM, UniProt O15033) was determined as 87%. In addition, the “100 Max” value in experiment [1] (uniprot O15033) amounted to 56.8; in experiment [2] (uniprot P35227, unit assumed), 5.9%. Also, the 100 ave in experiment [1] (uniprot O15033) is 49.1; in experiment [2] (uniprot P35227) it was −4.4. Besides, the 500 ave in experiment [1] (uniprot O15033) was determined as 55.1; in experiment [2] (uniprot P35227), 35.9. Also, the 500 Max in experiment [1] (uniprot O15033, unit assumed) worked out at 55.1%; in experiment [2] (uniprot P35227, unit assumed) it was 49.9%.
